Source: patent US8338420B1, “Treatment of Parkinson's disease and enhancement of dopamine signal using PDE 10 inhibitor” (Mitsubishi Tanabe Pharma Corporation, priority 2002, dated 2012)

Target: T1, PDE11 (PDE11A) (Homo sapiens, UniProt Q9HCR9)
T1 construct: His tag (hexahistidine, pcDNA4/HisMax) (N); made in house
Experiment: PDE assay, recombinant human PDE11A
Assay type: biochemical
Settings: substrate about 12 nM [3H]-cGMP and 1 μM cGMP
Description: Based on the information of cDNA sequence of human PDE7A (Genbank/EMBL Accession No. NM002603), a cDNA encoding human PDE7A was cloned by PCR method, according to a method described in Sasaki et al. (Sasaki et al., Biochem. Biophys. Res. Commun., vol. 271, pp. 575-583, 2000). Further, based on the information of cDNA sequence of human PDE8A (Genbank/EMBL Accession No. AF388183), a cDNA encoding human PDE8A was cloned by PCR method, according to a method described in Gamanuma et al. (Gamanuma et al., Cell Signal, 2003, vol. 15, pp. 565-574). Further, a cDNA encoding human PDE11A was obtained, according to a method reported in Yuasa et al. (Yuasa et al., J. Biol. Chem., vol. 275, pp. 31469-31479, 2000). Using these cDNAs, recombinant proteins of human PDE7A, human PDE8A, and human PDE11A were prepared as follows.
DNA fragments comprising a cDNA encoding human PDE7A, human PDE8A or human PDE11A were linked to pcDNA4/HisMax (available from Invitrogen), to give a vector plasmid for expression of human proteins, with a histidine tag peptide (hexahistidine), added to the N-terminus. COS-7 cells were transfected with these vector plasmids, and the cells were cultured in Dulbecco's modified Eagle medium containing 10% bovine fetal serum for about 24 hours. […]

T1 sequence (Q9HCR9 whole entry): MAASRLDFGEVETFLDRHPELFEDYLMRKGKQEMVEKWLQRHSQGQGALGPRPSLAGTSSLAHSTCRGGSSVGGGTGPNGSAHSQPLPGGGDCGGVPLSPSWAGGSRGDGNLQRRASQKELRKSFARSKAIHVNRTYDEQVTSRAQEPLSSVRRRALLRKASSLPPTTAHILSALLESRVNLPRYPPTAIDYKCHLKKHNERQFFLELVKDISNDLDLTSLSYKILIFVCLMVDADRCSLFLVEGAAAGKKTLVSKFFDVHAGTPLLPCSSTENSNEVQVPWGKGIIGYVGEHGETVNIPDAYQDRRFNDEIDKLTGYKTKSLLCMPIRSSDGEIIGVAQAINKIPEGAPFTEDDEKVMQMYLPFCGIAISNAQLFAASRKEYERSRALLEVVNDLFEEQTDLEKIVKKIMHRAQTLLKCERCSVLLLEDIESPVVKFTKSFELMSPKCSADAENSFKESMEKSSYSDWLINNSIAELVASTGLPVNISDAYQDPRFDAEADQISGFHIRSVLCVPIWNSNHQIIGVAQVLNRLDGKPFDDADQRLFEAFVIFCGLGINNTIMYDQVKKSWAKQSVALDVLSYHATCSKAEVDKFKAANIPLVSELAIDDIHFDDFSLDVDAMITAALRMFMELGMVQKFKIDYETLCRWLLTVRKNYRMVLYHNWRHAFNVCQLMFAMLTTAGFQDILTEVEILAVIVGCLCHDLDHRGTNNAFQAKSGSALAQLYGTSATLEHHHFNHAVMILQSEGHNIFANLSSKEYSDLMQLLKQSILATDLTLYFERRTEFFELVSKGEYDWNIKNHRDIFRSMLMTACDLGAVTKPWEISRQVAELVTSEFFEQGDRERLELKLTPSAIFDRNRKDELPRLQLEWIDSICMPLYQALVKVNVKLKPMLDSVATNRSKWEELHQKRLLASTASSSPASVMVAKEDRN

In the case of COc1ccc(-c2cc(N3CCCC3)nc(/C=C/c3nc(-n4ccnc4)c4ccccc4n3)n2)cc1OC [Compound A, 2-{(E)-2-[4-(1-imidazolyl)-quinazolin-2-yl]}ethenyl-4-(3,4-dimethoxy)phenyl-6-(pyrrolidin-1-yl)pyrimidine], the IC50 is reported as > 1000 nM.
